PMC8156816, “Antibacterial Activities of Homemade Matrices Miming Essential Oils Compared to Commercial Ones” (Antibiotics, 2021)
Values after ≈ are worked out from the molar mass of the structure shown. Where two headings read alike, the source gives them in different places.

Assays:
[1] = Cytotoxic activity, colorimetric MTT assay on keratinocytes; assay type: cell-based; details: human, HaCaT keratinocyte cells, interpretation proposed by Döll-Boscardin et al.
Protocol: The effect of each essential oil on the global growth of the cell line was investigated through a colorimetric MTT assay as previously described. Briefly, human keratinocytes cells (HaCaT) were grown in RPMI supplemented with 10% fetal bovine serum and 0.5% penicillin-streptomycin and seeded at a density of 10 000 cells/mL in 96-well plates. […] The contact time of incubation was 72 h. Finally, after 3 to 5 hours of incubation with the MTT (0.5 mg/mL), the plates were centrifuged at 1200 rpm for 5 min, the supernatant was discarded, and the formazan crystals formed dissolved in DMSO. A spectrophotometer (680XR, BioRad, Hercules, CA, USA) was used to measure the absorbance (at 570 and 630 nm), which can be directly correlated to the number of viable cells (cell viability (% RC) = (absorbance of treated cells/absorbance of control) × 100).

[2] = tested on: Staphylococcus aureus LMG 15975 (MRSA); assay: Direct antibacterial activity, broth microdilution MIC; assay type: cell-based; details: read-out: Direct Activity MRSA MIC
Protocol: (§1) Two types of antibacterial assays were employed as previously described. All the samples, essential oils, mixtures of essential oil types, and individual compounds were evaluated alone (direct activity) or in association with an antibiotic (indirect activity) at a sub-MIC concentration (non-active concentration). The tested strains were the Gram-positive Staphylococcus aureus LMG 15,975 (methicillin-resistant S. aureus, abbreviated as MRSA) and S. aureus LMG 21,674 (fusidic-acid-resistant S. aureus, abbreviated as FUSR). The chosen antibiotics were penicillin V and fusidic acid. The broth microdilution method in 96-well plates was used to determine the minimum inhibitory concentration (MIC). For the direct activity, samples were serially diluted to achieve a concentration ranging from 1 mg/mL to 2 μg/mL. For the indirect activity, the antibiotic was first serially diluted (from 64 to 7.103 μg/mL) and the samples were subsequently added to the wells at the defined sub-MIC concentration. These ranges were chosen because above them the sample is considered as non-active. For both assays, the inoculum was prepared from a suspension of 24-hour colonies to obtain a turbidity of 0.5 McFarland and added to the wells to achieve a final concentration of 5 × 10^5 CFU/mL. Plates were then incubated at 37 °C overnight and MTT (0.8 mg/mL) was used to determine the MIC by naked eye. A growth (Mueller–Hinton broth medium with inoculum) and a non-growth (only MHB) control were carried out. In addition, antibiotics were also always tested alone as positive controls.

[3] = tested on: Staphylococcus aureus LMG 21674 (FUSR); assay: as above; assay type: cell-based; details: for MIC: Staphylococcus aureus
Protocol: as §1

[4] = tested on: Staphylococcus aureus LMG 15975 (MRSA); assay: Indirect antibacterial activity in association with penicillin V; assay type: cell-based; details: sample at sub-MIC, versus penicillin V alone (4 μg/mL)
Description: as §1, with “All the samples, essential oils, mixtures of essential oil types, and individual compounds were evaluated alone (direct activity) or in association with an antibiotic (indirect activity) at a sub-MIC concentration (non-active concentration).” left out
(§2) The indirect activity presented in this study made use of a different method to test synergistic effects between two compounds. The difference with the traditional checkerboard method was that compound A (antibiotic) was serially diluted and compound B (essential oil/pure metabolite or homemade mixture) was added at a fix sub-MIC concentration, determined under the cytotoxic activity threshold. […] An indirect activity is observed when the MIC of the association is lower than the MIC of the antibiotic alone.

[5] = tested on: MRSA strains; details: same strain and other MRSA strains; cited from earlier work
[6] = tested on: human lung cells; details: cited from earlier work
[7] = tested on: Staphylococcus aureus LMG 21674 (FUSR); assay: Indirect antibacterial activity in association with penicillin V; assay type: cell-based; details: sample at sub-MIC, versus penicillin V alone (16 μg/mL)
Description: as §1, with “All the samples, essential oils, mixtures of essential oil types, and individual compounds were evaluated alone (direct activity) or in association with an antibiotic (indirect activity) at a sub-MIC concentration (non-active concentration).” left out
as §2

[8] = tested on: S. aureus MTCC 7405; design: method as in Dahham et al. (2015); details: ref Dahham et al. (2015); cited from earlier work
[9] = tested on: S. aureus ATCC 25923 (MSSA); design: method as in PMID 16619365; details: cited from earlier work
[10] = tested on: MSSA (ATCC 29,213); design: method as in PMID 32629822; details: cited from earlier work
[11] = tested on: green monkey kidney, mouse fibroblast, human retinal ganglion, and human colon fibroblast cell lines; details: cited from earlier work
[12] = sample alone, broth microdilution, median
[13] = LMG21674, sample alone, broth microdilution, median, read-out: Direct Activity FUSR MIC

Row | Compound | MIC [2, 12] [µg/mL] | MIC [3, 13] [µg/mL] | decrease of the MIC of penicillin V on MRSA [4] [fold] | also measured
1 | C=CC(C)(O)CCC=C(C)C (stereo not shown) [Linalool] | > 1000 | > 1000 |  | IC50 at 72 h [1]: < 31.3 µg/mL
2 | Cc1ccc(C(C)C)cc1 [p-cymene] | > 1000 | > 1000 |  | Direct Activity FUSR MIC [3, 12]: No direct activity
3 | C=CC(=C)CCC=C(C)C [β-myrcene] | > 1000 | > 1000 |  | 
4 | CC1=CCC(C(C)C)=CC1 [γ-terpinene] | > 1000 | > 1000 |  | Direct Activity FUSR MIC [3, 12]: No direct activity
5 | Cc1ccc(C(C)C)cc1O [Carvacrol] |  |  | 4 | MIC [2]: 250 µg/mL (≈ 1660 µM); MIC ([3]; LMG21674, read-out: Direct Activity FUSR MIC): 62.5 µg/mL (≈ 416 µM); decrease of the MIC of penicillin V on FUSR S. aureus [7]: 4 fold; cytotoxicity [6]: low cytotoxicity
6 | C=C1CC/C=C(\C)CC[C@@H]2[C@@H]1CC2(C)C [β-caryophyllene] | > 1000 | 31.3 (≈ 153 µM) | 4 | decrease of the MIC of penicillin V on FUSR S. aureus [7]: 267 fold; MIC compared with kanamycin [8]: a better MIC on S. aureus MTCC 7405 than the kanamycin; MIC [9]: 5.1 µg/mL (≈ 25 µM); MIC [10]: 313 µg/mL (≈ 1530 µM); cytotoxic effect [11]: low cytotoxic effect

The remaining molecules from weak to strong by MIC [3, 13], led by results:

Row | MIC [2, 12] [µg/mL] | MIC [3, 13] [µg/mL] | Compound | decrease of the MIC of penicillin V on MRSA [4] [fold] | also measured
7 |  | 256 (≈ 495 µM) | CC(=O)O[C@H]1C[C@@]2(C)[C@@H](C[C@@H](O)[C@H]3[C@@]4(C)CC[C@@H](O)[C@@H](C)[C@@H]4CC[C@@]32C)/C1=C(\CCC=C(C)C)C(=O)O [fusidic acid] |  | 
8 | > 1000 | 250 (≈ 1840 µM) | C=C1CCC2CC1C2(C)C (stereo not drawn) [β-pinene] |  | 
9 | 250 (≈ 1660 µM) | 125 (≈ 832 µM) | Cc1ccc(C(C)C)c(O)c1 [Thymol] | 4 | MIC [5]: around 600 μg/mL; cytotoxicity [6]: low cytotoxicity
10 | 4 (≈ 11.4 µM) | 16 (≈ 45.7 µM) | CC1(C)S[C@@H]2[C@H](NC(=O)COc3ccccc3)C(=O)N2[C@H]1C(=O)O [PEN V, penicillin V] |  | 
